From US20250064888A1, “COMPOSITIONS AND METHODS FOR TREATING CYTOKINE STORM” (SHENZHEN HIGHTIDE BIOPHARMACEUTICAL LTD., priority 2022, published 2025)
Marks after values point to notes of the source that are not given here.

Tested on: LPS-induced mice model
Assay: Survival rate in LPS-induced mice model
Format: in vivo, C57BL/6J mice
Conditions: G6 positive control, 4 mg/kg/day ig; for survival rate: first dose 1 h before LPS
Procedure: Male SPF C57BL/6J mice (6-8 weeks old with body weight about 18-20 g) used in the study were purchased from Shanghai SLAC Laboratory Animal Co., Ltd. All the care and use of animals followed 3R principles and relevant regulations.
One hundred (100) male C57BL/6J mice (18-20 g) were used for the study. After acclimated for 7 days, the inflammation mice model, which is characterized by a severe acute systemic inflammation response was established by a single tail vein injection of LPS (30 mg/kg).
The model animals were randomly divided into 7 groups: vehicle control group (G0), test group 1 (G1)˜test group 5 (G5) and positive control group (G6), of which there were 15 mice/group in G0˜G5 and 10 mice/group in G6. Day 1 was defined as the day on which tail vein injection of LPS (30 mg/kg), treatment start from the same day of the model establishment (Day 1) through Day 5 for consecutive 5 days (120 h after LPS induction). Except for the first dose on Day1 which were set at 5 min before LPS injection, 5 min after LPS injection, 1 hour before LPS injection and 1 hour after LPS injection respectively (Detailed information see the administration schedule in table 1), each groups have the same time schedules for administration (8 h after LPS injection for the second dose and bid with once in the morning, once in the evening for the following days). Vehicle and API were administered by back subcutaneous injection, DEX was administered by gavage.
Graphpad 8.0 software was used for data analysis. Log-rank (Mantel-Cox) test was used for statistical analysis of the survival rate between each treatment group and vehicle control group.

Question: For `C[C@@H]1C[C@H]2[C@@H]3CCC4=CC(=O)C=C[C@]4(C)[C@@]3(F)[C@@H](O)C[C@]2(C)[C@@]1(O)C(=O)CO` [DEX, Dexamethasone], which survival rate (8 h) is on record?
Answer: 100.0%

Question: And the survival rate (16 h)?
Answer: 100.0%

Question: And the survival rate (24 h)?
Answer: 100.0%

Question: And the survival rate (48 h)?
Answer: 90.0%

Question: What about the survival rate (72 h) of the same compound?
Answer: 90.0%

Question: What about the survival rate (120 h) of the same compound?
Answer: 90.0%**

Question: What about the “mice died until 72 h after LPS injection” value (10 mice/group) of the same compound?
Answer: 1 mouse
